Data from patent US9839643B2, “Palladium complex with high anticancer activity” (ULUDAG ÜNIVERSITESI TTO, priority 2014, dated 2017).

Experiments:
[1] = tested on: NCI-ADRRES; type: cell-based; details: 48 hour incubation, unit not given (tested from 100 μM); for GI50: read-out: GI50 (dose inhibiting 50% cell growth); for CC50: read-out: LC50 (dose killing 50% of initially seeded cells)
Procedure: (§1) Anticancer activity tests were made on colon (HCT116, HT29, HCT15), lung (A549, H460) and ovarian (OVCARS, OVCAR3, NCI-ADRRES) cancer cell lines in vitro. All cell lines were obtained from American Type Culture Collection (Manassas, Va., USA) or American National Cancer Institute (NCl, USA). All cell lines were grown in RPMI1640 medium supplemented with 25 mM HEPES, 2 mM L-Glutamine, 5-10% fetal calf serum and antibiotics at 37° C. in a humidified 5% CO2 atmosphere.
(§2) The effect of the aforementioned compound on the selected cell lines indicated above was tested with Sulforhodamine B (SRB) assay that is also used by American National Cancer Institute. 100 μL of cancer cells were seeded at densities between 5.000-40.000 per well of a 96 well plate. The cells were incubated for 24 h for adaptation. […] The tested complex was dissolved in DMSO at 100 μM initial concentration and diluted to obtain 10 different concentrations as 1:2, 1:4 or 1:10. Every different concentration was analyzed in triplicates and in two independent experiments. The cells were fixed with 50% (w/v) ice-cold TCA in situ after 48 hour incubation. SRB dye bound to the cells was dissolved by unbuffered 10 mM Tris solution and absorbance values were measured at 530 nm in an ELISA microplate reader. Percentages for cell growth that were calculated from absorbance measurements (initial: TZ, control: C, complex at different concentrations: Ti) are as described below:
(§3) Gl50 (dose inhibiting 50% cell growth)=[Ti−Tz)/(C-Tz)]×100=50
(§4) TGI (total growth inhibition): Ti=Tz
(§5) LC50 (dose killing 50% of initially seeded cells)=[(Ti−Tz)/Tz]×100=−50

[2] = tested on: HCT116; type: cell-based; details: for TGI (total growth inhibition) / GI50 / CC50: 48 hour incubation, unit not given (tested from 100 μM); for GI50: read-out: GI50 (dose inhibiting 50% cell growth); for CC50: read-out: LC50 (dose killing 50% of initially seeded cells)
Procedure: as §1, §2, §3, §4, §5

[3] = tested on: HCT15; type: cell-based; details: for TGI (total growth inhibition) / GI50 / CC50: 48 hour incubation, unit not given (tested from 100 μM); for GI50: read-out: GI50 (dose inhibiting 50% cell growth); for CC50: read-out: LC50 (dose killing 50% of initially seeded cells)
Procedure: as §1, §2, §3, §4, §5

[4] = tested on: OVCAR3; type: cell-based; details: 48 hour incubation, unit not given (tested from 100 μM); for GI50: read-out: GI50 (dose inhibiting 50% cell growth)
Procedure: as §1, §2, §3, §4, §5

[5] = tested on: H460; type: cell-based; details: 48 hour incubation, unit not given (tested from 100 μM); for GI50: read-out: GI50 (dose inhibiting 50% cell growth); for CC50: read-out: LC50 (dose killing 50% of initially seeded cells)
Procedure: as §1, §2, §3, §4, §5

[6] = tested on: HT29; type: cell-based; details: for TGI (total growth inhibition) / GI50 / CC50: 48 hour incubation, unit not given (tested from 100 μM); for GI50: read-out: GI50 (dose inhibiting 50% cell growth); for CC50: read-out: LC50 (dose killing 50% of initially seeded cells)
Procedure: as §1, §2, §3, §4, §5

[7] = tested on: OVCAR5; type: cell-based; details: 48 hour incubation, unit not given (tested from 100 μM); for GI50: read-out: GI50 (dose inhibiting 50% cell growth); for CC50: read-out: LC50 (dose killing 50% of initially seeded cells)
Procedure: as §1, §2, §3, §4, §5

[8] = tested on: A549; type: cell-based; details: 48 hour incubation, unit not given (tested from 100 μM); for GI50: read-out: GI50 (dose inhibiting 50% cell growth); for CC50: read-out: LC50 (dose killing 50% of initially seeded cells)
Procedure: as §1, §2, §3, §4, §5

[9] = tested on: HCT116 cancer cells; assay: HCT116 xenograft study in NOD/SCID mice; type: in vivo; design: key to tumor size: tumor volume in mm^3, (a×b²)/2 from caliper length and width; details: for tumor size / ΔT/ΔC % value: HCT116 xenograft, complex 40 mg/kg, oxaliplatin 5 mg/kg; for tumor size: no unit in table (method gives tumor volume in mm^3); for ΔT/ΔC % value: day 22, highly active compounds have values less than 42%
Procedure: Xenograft studies were made by using HCT116 colon cancer cell lines after observing that the subject of the invention, palladium(II) complex, is especially effective on colon cancer cells. […] To obtain the xenografts, approximately 10^6 cells from exponentially growing HCT116 cells were intradermally injected in the axillae of 6-8 weeks old NOD/SCID mice by using the English double sided trocar implantation method. Two separate injections were made to each mouse. Two tumor inocula were added to each mouse in order to produce one tumor load for each mouse. […] These positive effects are the beneficial aspects of the English system.
Treatment was started in randomly chosen animal groups when the tumor volume reached 100-200 mm^3. […] The treatment was performed in 5 days of application and 2 days of resting periods. Tumor volume was calculated from [(axb^2)/2] formula. In this formula, a and b are tumor length and width which are measured by vernier caliper. Measurements were repeated twice weekly. Treated animals received a single dose from the drugs. Apart from tumor volume, ΔT/ΔC % values were calculated from ΔT═T−D0 and ΔC═C−D0 equations. D0 is the mean tumor volume at the beginning of the treatment, T is the mean tumor volume of treated mice and C is the mean tumor volume of untreated (not injected with complex) mice which is used as a control. […] Weight loss, neurological disorders and changes in diet were recorded as indication of toxicity (side effects). The experiments were terminated when the tumor volume reached approximately to 1000-1500 mm^3.

[10] = tested on: A549 cells; details: cited from earlier work
[11] = Day 19 (value equal in all groups, start of treatment)
[12] = versus cisplatin, oxaliplatin and carboplatin

Structure (SMILES) | TGI (total growth inhibition) [1] | GI50 [1] [µM] | CC50 [1] [µM] | TGI (total growth inhibition) [2] | GI50 [2] [µM] | CC50 [2] [µM] | TGI (total growth inhibition) [3] | GI50 [3] [µM] | CC50 [3] [µM] | TGI (total growth inhibition) [4] | GI50 [4] [µM] | TGI (total growth inhibition) [5] | GI50 [5] [µM] | CC50 [5] [µM] | TGI (total growth inhibition) [6] | GI50 [6] [µM] | TGI (total growth inhibition) [7] | GI50 [7] [µM] | TGI (total growth inhibition) [8] | GI50 [8] [µM] | also measured
N.N.O=C([O-])C1(C(=O)[O-])CCC1.[Pt+2] [Carboplatin, carboplatin] | >100 | > 100 | > 100 | >100 | > 100 | > 100 | >100 | > 100 | > 100 | >100 | > 100 | >100 | > 100 | > 100 | >100 | > 100 | >100 | > 100 | >100 | > 100 | CC50 [6]: > 100 µM; CC50 [7]: > 100 µM; CC50 [8]: > 100 µM
N.N.[Cl][Pt][Cl] [Cisplatin, cisplatin] | >100 | 9.9 |  | 90.2 | 24.8 |  | 85.9 | 57.3 |  | >100 | 34.3 | 50.3 | 8.9 |  | 92.0 | 29.8 | >100 | 57.8 | 55.1 | 6.6 | 
O=C1[O][Pt]2([NH][C@@H]3CCCC[C@H]3[NH]2)[O]C1=O [Oxaliplatin, oxaliplatin] | >100 | 24.8 |  | 64.1 | 0.9 |  | 17.2 | 6 |  | >100 | 9.1 | 95.6 | 6.8 |  | 56.5 | 6.3 | >100 | 50.7 | 58.2 | 4.4 | tumor size [9, 11]: 245.96; tumor size ([9]; Day 22): 361.82 ± 153.96; tumor size ([9]; Day 26): 538.00 ± 203.51; tumor size ([9]; Day 29): 622.29 ± 152.76; tumor size ([9]; Day 33): 847.06 ± 176.45; ΔT/ΔC % value [9]: +70.60%
CCC1(CC)C(=O)NC(=O)[N]([Pd-2]23[n+]4ccccc4C[NH+]2Cc2cccc[n+]23)C1=O.O.[Cl-] [[Pd(bpma)(barb)]Cl•H2O, [Pd(bpma)(barb)]Cl·H2O] | 10.0 | 5.6 | > 100 | 9.1 | 4.9 | 82.4 | 9.9 | 6.8 | 89.1 | 25.2 | 6.5 | 75.9 | 44.4 | > 100 | 6.6 | 3 | 63.5 | 40 | 80.1 | 43.1 | tumor size [9, 11]: 245.96; tumor size ([9]; Day 22): 195.61 ± 151.45; tumor size ([9]; Day 26): 373.88 ± 157.42; tumor size ([9]; Day 29): 577.38 ± 157.37; tumor size ([9]; Day 33): 782.22 ± 228.55; decrease of tumor volume compared to oxaliplatin ([9]; all time points of measurement, complex 40 mg/kg vs oxaliplatin 5 mg/kg): decreased the tumor volume more effectively than oxaliplatin in all time points of measurement; ΔT/ΔC % value [9]: −29.88%; cytotoxic effect compared to anticancer drugs [2, 12]: selectively effective; cytotoxic effect compared to anticancer drugs [3, 12]: selectively effective; CC50 [6]: 22 µM; cytotoxic effect compared to anticancer drugs [6, 12]: selectively effective; CC50 [7]: 87 µM; CC50 [8]: > 100 µM
O.O.O=C1[N-]S(=O)(=O)c2ccccc21.[Cl][Pd-2]12[n+]3ccccc3C[NH+]1Cc1cccc[n+]12 [[Pd(bpma)Cl](sac)·2H2O] |  |  |  |  |  |  |  |  |  |  |  |  |  |  |  |  |  |  |  |  | cytotoxic effect [10]: showed a cytotoxic effect on A549 cells, similar to cisplatin
